According to PMC3437750 (Journal of medicinal chemistry, 2011):

Legend:
purified human PMM2 = target: T1, purified human PMM2 (Homo sapiens, UniProt O15305); assay: PMM2 in vitro enzymatic concentration-response assay; assay type: biochemical; settings: tested up to 20 µM where stated
T1 sequence (O15305 1-246): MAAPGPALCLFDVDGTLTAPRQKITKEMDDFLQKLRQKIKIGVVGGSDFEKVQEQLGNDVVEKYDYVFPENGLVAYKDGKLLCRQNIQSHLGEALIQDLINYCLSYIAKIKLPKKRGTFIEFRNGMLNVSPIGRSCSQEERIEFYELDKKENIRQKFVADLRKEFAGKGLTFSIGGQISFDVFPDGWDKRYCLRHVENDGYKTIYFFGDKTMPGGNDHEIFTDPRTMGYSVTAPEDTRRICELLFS

purified human PMI = target: T2, purified human PMI (Homo sapiens, UniProt P34949); assay type: biochemical
T2 sequence (P34949 1-423): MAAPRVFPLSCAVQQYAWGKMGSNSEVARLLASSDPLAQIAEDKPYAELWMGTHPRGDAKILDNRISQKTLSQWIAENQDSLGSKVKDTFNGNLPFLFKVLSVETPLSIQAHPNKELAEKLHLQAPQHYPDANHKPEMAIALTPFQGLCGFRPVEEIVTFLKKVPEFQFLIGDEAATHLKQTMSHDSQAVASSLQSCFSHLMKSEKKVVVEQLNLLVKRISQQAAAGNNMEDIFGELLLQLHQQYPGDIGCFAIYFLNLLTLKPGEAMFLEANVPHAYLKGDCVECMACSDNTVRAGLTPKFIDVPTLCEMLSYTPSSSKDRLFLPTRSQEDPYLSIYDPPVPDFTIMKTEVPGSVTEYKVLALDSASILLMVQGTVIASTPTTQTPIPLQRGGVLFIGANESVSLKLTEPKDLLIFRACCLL

[1] = Parallel Artificial Membrane Permeation Assay; assay type: in vitro ADME; settings: assessed in vitro, PAMPA
[2] = Glutathione conjugation assay; settings: 10 µM, 2 mg/mL rat hepatic S9, 10 mM glutathione, 37°C, 2 hours

Compound | PMM2 inhibition (in words) (purified human PMM2) | GSH adduct formation by LCMS (in words) [2] | other results
O=c1c2ccccc2sn1-c1ccccc1 [Compound 1, 2-Phenyl-2-hydrobenzo[d]isothiazol-3-one] | selective for PMI over PMM2 | – | –
O=c1c2ccccc2sn1-c1ccc(C(F)(F)F)cc1 [Compound 6, 2-[4-(Trifluoromethyl)phenyl]-2-hydrobenzo[d]isothiazol-3-one] | inactive against both enzymes | – | cellular toxicity (35S-Met/Cys incorporation, in words) (Hela cells): exhibits cellular toxicity; PMI inhibition (in words) (purified human PMI): inactive against both enzymes
Cc1ccc(C)c(-n2sc3ccccc3c2=O)c1 [Compound 16, 2-(2,5-dimethylphenyl) benzo[d]isothiazol-3(2H)-one] | a measurable inhibition of PMM2 was observed | – | –
O=c1c2cc(F)ccc2sn1-c1ccccc1 [Compound 19, 5-Fluoro-2-phenylbenzo[d]isothiazol-3(2H)-one] | – | no GSH adducts were observed | predicted permeability (in words) [1]: moderately permeable
O=C(O)Cc1ccccc1Nc1c(Cl)cccc1Cl [diclofenac, reference compound] | – | showed the expected conjugate masses | –
